A word on the Kd: it is the free concentration of one partner at which half of the binding sites on the other are occupied at equilibrium, for simple one-to-one binding. In general, Ki refers to the equilibrium dissociation constant of an inhibitor or competing ligand from its target. A high value points to lower affinity.

One series concerns 2B6. The note with it: ref [20]; cited from earlier work.
Series [1] concerns the target T1, Human cytochrome P450 2B6dH (Homo sapiens, UniProt P20813). The conditions noted are these: 1 μM P450, 25 °C, 50 mM potassium phosphate pH 7.4, 500 mM NaCl, 500 mM sucrose.
In series [2] the target is T2, Cytochrome P450 2B4dH(H226Y) (Oryctolagus cuniculus, UniProt P00178, H226Y). The note with it: for ΔAmax: 2B4dH, 1 μM P450, 25 °C, 50 mM potassium phosphate pH 7.4, 500 mM NaCl, 500 mM sucrose.
The target in series [3] is T2, Cytochrome P450 2B4dH(H226Y). Put plainly: biochemical.
The target in series [4] is T3, P450 2B4 (Oryctolagus cuniculus, UniProt P00178, H226Y). In words: biochemical.
For series [5], the target named is T3, P450 2B4. The note with it: ratio 2B4/2B6.
Series [6] deals with T1, Human cytochrome P450 2B6dH. Put plainly: biochemical.
The target in a further series is P450 2B6 (Homo sapiens, UniProt P20813, D28G/E2A/H23K/H27K/N25S/P24T/R22K/R29K/T26S). In words: biochemical.

For `Clc1ccccc1CN1CCc2sccc2C1` [Ticlopidine, ticlopidine], the “suppression of bupropion hydroxylation by 2B6” value in the series with 2B6 is given as 90%. The figures for the ΔAmax in series [1] and in series [2] were 0.02 ± 0.001 OU μM^-1 and 0.03 ± 0.008 OU μM^-1, respectively. In series [3], binding was characterised by a dissociation constant (Kd) of 1300 ± 100 nM. Affinity on P450 2B4 [4] was put at a Ki of 810 ± 100 nM.
In the case of `COC(=O)[C@H](c1ccccc1Cl)N1CCc2sccc2C1` [Clopidogrel, clopidogrel], the “suppression of bupropion hydroxylation by 2B6” value in the series with 2B6 was 68%. Besides, the ΔAmax in series [1] was found to be 0.04 ± 0.005 OU μM^-1; in series [2], 0.05 ± 0.001 OU μM^-1. For the same compound, the “fold higher Ki of 2B4 than 2B6” value at P450 2B4 [5] is 4 fold. In addition, the results for the Kd in series [6] and in series [3] were 100 ± 70 nM and 600 ± 60 nM, respectively. In addition, in series [2] (ratio 2B4/2B6), the “fold higher Ks of 2B4 compared with 2B6” value is around 6 fold. Further, the Ki at P450 2B6 amounted to 100 ± 10 nM; at P450 2B4 [4] it was 360 ± 40 nM.

Source of the values: PMC3005796 (Biochemistry, 2010).
